Legend:
Type in all cases: cell-based
Den M = molecular target: T1, Den M (Dengue virus type 1, UniProt P33478); assay: Bacterial bioassay, Den M; parameters: scale not given here; conditions: mean bacterial bioassay score; M protein of Dengue virus
T1 construct: expressed in transfected cells
From the text: (§1) The bacterial bioassay method used in the present example to test the anti-viral activity of the compounds against different viral targets was described in detail in PCT/2004/000866, incorporated in its entirety herein by reference. Vpu, p7 and M referred to in the table are small membrane proteins encoded by HIV, HCV and Dengue viruses, respectively, which have functional activities supporting viral growth and/or replication.

Vpu = molecular target: T2, Vpu (Human immunodeficiency virus type 1 group M subtype B, UniProt P05919); assay: Bacterial bioassay, Vpu; conditions: mean bacterial bioassay score; Vpu of HIV
T2 construct: expressed in transfected cells
T2 sequence (P05919 whole entry): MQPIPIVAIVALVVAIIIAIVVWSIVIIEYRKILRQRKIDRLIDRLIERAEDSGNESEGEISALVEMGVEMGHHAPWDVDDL
From the text: as §1

HCV p7 = molecular target: T3, HCV p7 (Hepatitis C virus genotype 1a, UniProt P27958); assay: Bacterial bioassay, HCV p7; parameters: scale not given here; conditions: mean bacterial bioassay score; p7 of HCV
T3 construct: expressed in transfected cells
T3 sequence (P27958 747-809): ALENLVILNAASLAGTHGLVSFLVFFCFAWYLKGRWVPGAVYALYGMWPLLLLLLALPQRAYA
From the text: as §1

T1 sequence (P33478 206-280): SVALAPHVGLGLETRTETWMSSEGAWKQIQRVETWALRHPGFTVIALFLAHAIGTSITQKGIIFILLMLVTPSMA

| Compound | Average Bacterial Assay Score, Den M (Den M) | Average Bacterial Assay Score, Vpu (Vpu) | Average Bacterial Assay Score, HCV p7 (HCV p7) |
| --- | --- | --- | --- |
| CC(=O)Nc1cccc(-c2cccc3cc(C(=O)NC(=N)N)ccc23)c1 [BIT318, (5-(3-(acetylamino)phenyl)-2-napthoyl)guanidine] | 0.35 | 2.00 | 0.30 |
| CC(=O)Nc1ccc(-c2cccc3cc(C(=O)NC(=N)N)ccc23)cc1 [BIT317, (5-(4-(acetylamino)phenyl)-2-napthoyl)guanidine] | 0.40 | 0.00 | 0.20 |
| N=C(N)NC(=O)C=Cc1cc(Br)ccc1F [BIT124, 5-bromo-2-fluorocinnamoylguanidine, reference compound] |  |  | 2.25 |
| N=C(N)NC(=O)C=Cc1ccc(Cl)c(Cl)c1 [BIT300, 3,4-dichlorocinnamoyl guanidine] | 3.40 | 1.52 | 0.67 |
| CC(=O)O.Cn1cc(-c2ccc3cc(C(=O)NC(=N)N)ccc3c2)cn1 [BIT314, (6-(1-methylpryazol-4-yl)-2-napthoyl)guanidinium acetate] | 1.60 | 0.00 | 3.30 |
| N=C(N)NC(=O)C=Cc1cccc(Br)c1 [BIT067, (3-Bromocinnamoyl)guanidine, reference compound] |  | 2.88 |  |
| N=C(N)NC(=O)C=CC=Cc1ccccc1Br [BIT128, 5-(2′-bromophenyl)penta-2,4-dienoylguanidine, reference compound] | 2.87 |  |  |
| N=C(N)NC(=O)c1ccc2c(-c3ccccc3Cl)cccc2c1 [BIT316, (5-(2-chlorophenyl)-2-napthoyl)guanidine] | 0.50 | 0.20 | 0.80 |
| COc1ccc(-c2cccc3cc(C(=O)NC(=N)N)ccc23)c(OC)n1 [BIT315, (5-(2,6-dimethoxypyridin-3-yl)-2-napthoyl)guanidine] | 1.00 | 0.20 | 0.30 |
| CS(=O)(=O)Nc1ccc(-c2cccc3cc(C(=O)NC(=N)N)ccc23)cc1 [BIT319, (5-(4-((methylsulphonyl)amino)phenyl)-2-napthoyl)guanidine] | 0.15 | 0.00 | 0.00 |

Reference: patent publication US9440926B2, “Antiviral compounds and methods” (Biotron Limited, priority 2005, dated 2016)
